Test system: NCI-H1876 complex spheroid growth, % test/control
Assay: Anticancer human tumor NCI-H1876 cell line growth inhibition [Asc];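 further: compound exposure lasted 7 days starting three days after seeding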;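 on viability, T/C: 100% = DMSO vehicle control wells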
Conditions: for IC50: curve of first compound; for viability, T/C: stronger effect = lower value
In short: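 Concentration series start at each agent's clinical Cmax, or at 10 microM when none is established, and drop in half-log steps; agents are applied alone or together to complex spheroids built with HUVEC and hMSC.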

CCN1CCN(Cc2ccc(Nc3ncc(F)c(-c4cc(F)c5nc(C)n(C(C)C)c5c4)n3)nc2)CC1 + CCN1C(C(=O)NC23CCC(C(=O)O)(CC2)CC3)C(c2cccc(Cl)c2F)C2(C(=O)Nc3cc(Cl)ccc32)C12CCCCC2
IC50 (second compound 0.00949 µM): > 1000 nM | IC50 (second compound 0.03 µM): > 1000 nM | IC50 (second compound 0.0949 µM): > 1000 nM | IC50 (second compound 0.3 µM): > 1000 nM | IC50 (second compound 0.949 µM): > 1000 nM | IC50 (second compound 3 µM): > 1000 nM | viability, T/C (second compound 0.00949 µM, first compound 0.00316 µM): 103% | viability, T/C (second compound 0.00949 µM, first compound 0.01 µM): 100% | viability, T/C (second compound 0.00949 µM, first compound 0.0316 µM): 106% | viability, T/C (second compound 0.00949 µM, first compound 0.1 µM): 115% | viability, T/C (second compound 0.00949 µM, first compound 0.316 µM): 115% | viability, T/C (second compound 0.00949 µM, first compound 1 µM): 129% | viability, T/C (second compound 0.03 µM, first compound 0.00316 µM): 102% | viability, T/C (second compound 0.03 µM, first compound 0.01 µM): 102% | viability, T/C (second compound 0.03 µM, first compound 0.0316 µM): 96.1% | viability, T/C (second compound 0.03 µM, first compound 0.1 µM): 113% | viability, T/C (second compound 0.03 µM, first compound 0.316 µM): 123% | viability, T/C (second compound 0.03 µM, first compound 1 µM): 133% | viability, T/C (second compound 0.0949 µM, first compound 0.00316 µM): 105% | viability, T/C (second compound 0.0949 µM, first compound 0.01 µM): 95.9% | viability, T/C (second compound 0.0949 µM, first compound 0.0316 µM): 117% | viability, T/C (second compound 0.0949 µM, first compound 0.1 µM): 109% | viability, T/C (second compound 0.0949 µM, first compound 0.316 µM): 116% | viability, T/C (second compound 0.0949 µM, first compound 1 µM): 127% | viability, T/C (second compound 0.3 µM, first compound 0.00316 µM): 103% | viability, T/C (second compound 0.3 µM, first compound 0.01 µM): 105% | viability, T/C (second compound 0.3 µM, first compound 0.0316 µM): 102% | viability, T/C (second compound 0.3 µM, first compound 0.1 µM): 113% | viability, T/C (second compound 0.3 µM, first compound 0.316 µM): 123% | viability, T/C (second compound 0.3 µM, first compound 1 µM): 129% | viability, T/C (second compound 0.949 µM, first compound 0.00316 µM): 110% | viability, T/C (second compound 0.949 µM, first compound 0.01 µM): 114% | viability, T/C (second compound 0.949 µM, first compound 0.0316 µM): 106% | viability, T/C (second compound 0.949 µM, first compound 0.1 µM): 114% | viability, T/C (second compound 0.949 µM, first compound 0.316 µM): 131% | viability, T/C (second compound 0.949 µM, first compound 1 µM): 122% | viability, T/C (second compound 3 µM, first compound 0.00316 µM): 113% | viability, T/C (second compound 3 µM, first compound 0.01 µM): 99.2% | viability, T/C (second compound 3 µM, first compound 0.0316 µM): 109% | viability, T/C (second compound 3 µM, first compound 0.1 µM): 108% | viability, T/C (second compound 3 µM, first compound 0.316 µM): 116% | viability, T/C (second compound 3 µM, first compound 1 µM): 111%
